The values that follow come from US10358469B2, “Methods and pharmaceutical compositions for the treatment of cancer” (INSERM (INSTITUT NATIONAL DE LA SANTÉ ET DE LA RECHERCHE …, priority 2014, dated 2019).

One series relates to A549 cells. In words: Cell viability (MTT) of A549 cells under low serum / serum deprivation. Type of series: cell-based. To be noted: for cytotoxicity (decrease of A549 viability) relative to comparison peptide, dose-response: various concentrations, low-serum conditions, FIG. 2A / 5A; for cytotoxicity (decrease of A549 viability) relative to comparison peptide, dose-response / induction of cell death of A549 cells: 24 hours; for cellular viability: 2 µM; for induction of cell death of A549 cells: 10 μM, serum deprivation, FIG. 1C. The procedure: (A) Karpas 1106, SU-DHL-5, SeAx and HUT-78 cells were plated at a densities of 6×10^3 in 96 well plates (100 μL total volume per well) and treated for 24 hours in a 37° C. incubator (5% CO2) with increasing concentrations of the Antp-AAC-11-LZ (363-399). 20 μL MTS reagent was then added to each well and plates were incubated for an additional 4 hours. Absorbance was measured at 490 nm using a 96-well plate reader. The extent to which the Antp-AAC-11-LZ (363-399) peptide inhibited cell proliferation was calculated as a percentage of the absorbance in each well containing the Antp-AAC-11-LZ (363-399) peptide relative to wells containing no peptide (negative control). Each bar represents the mean±s.d. from at least three independent experiments. (B) Indicated cells were plated at a densities of 4.5×10^3 in 96 well plates (100 μL total volume per well) and allowed to attach overnight in a 37° C. incubator (5% CO2). Media was removed from cells and replaced with media containing Antp-AAC-11-LZ (363-399) peptide at various concentrations (100 μL total volume per well) peptide and the plates were incubated for 24 hours. The MTT assay was then completed and data analysis was performed as described herein. […] A549 cells were plated at a densities of 4.5×10^3 in 96 well plates (100 μL total volume per well) and allowed to attach overnight in a 37° C. incubator (5% CO2). Media was removed from cells and replaced with media containing the indicated peptides at 10 μM (100 μL total volume per well) and the plates were incubated for 24 hours. The MTT assay was then completed and data analysis was performed as described herein.
(A) A549 cells were plated at a densities of 4.5×10^3 in 96 well plates (100 μL total volume per well) and allowed to attach overnight in a 37° C. incubator (5% CO2). Media was removed from cells and replaced with media containing the indicated peptides at various concentrations (100 μL total volume per well) peptide in the absence of serum and the plates were incubated for 24 hours. The MTT assay was then completed and data analysis was performed as described herein. (B) A549 or HaCat cells were plated at a densities of 4.5×10^3 in 96 well plates (100 μL total volume per well) and allowed to attach overnight in a 37° C. incubator (5% CO2). Media was removed from cells and replaced with media containing the indicated peptides at 10 μM (100 μL total volume per well) peptide in the absence of serum and the plates were incubated for 24 hours. The MTT assay was then completed and data analysis was performed as described herein.
A549 cells were plated at a densities of 4.5×10^3 in 96 well plates (100 μL total volume per well) and allowed to attach overnight in a 37° C. incubator (5% CO2). Cells were left untreated or pre-treated with 100 μM Z-VAD-FMK for 2 h. […] The MTT assay was then completed and data analysis was performed as described herein.
(A) A549 cells were plated at a densities of 4.5×10^3 in 96 well plates (100 μL total volume per well) and allowed to attach overnight in a 37° C. incubator (5% CO2). Media was removed from cells and replaced with media containing the indicated Antp-AAC-11-LZ peptides at various concentrations (100 μL total volume per well) peptide and the plates were incubated for 24 hours. The MTT assay was then completed and data analysis was performed as described herein. (B) A549 or HaCat cells were plated at a densities of 4.5×10^3 in 96 well plates (100 μL total volume per well) and allowed to attach overnight in a 37° C. incubator (5% CO2). Media was removed from cells and replaced with media containing the indicated peptides at 10 μM (100 μL total volume per well) peptide in the absence of serum and the plates were incubated for 24 hours. The MTT assay was then completed and data analysis was performed as described herein.

In series [1] the test system is leukemic cells isolated from hMRP8-PML/RARα transgenic mice. The experiment in a line: Acute promyelocytic leukemia (APL) mouse model, survival. Type of series: in vivo. The protocol:
FIG. 9: Antp-AAC-11-LZ (363-399) peptide treatment of leukemic mice protects against disease progression. Mice were challenged with 10^4 leukemic cells isolated from hMRP8-PML/RARα transgenic mice, allowed to engraft for 10 d, and were then injected intraperitonaly each day for 7 consecutive days with Antp-AAC-11-LZ (363-399) peptide (1.8 mg/kg) or vehicle (normal saline solution), or subcutaneously implanted with a 21-d release pellet containing 5 mg ATRA (n=6 for each treatment). Mice were monitored for survival.
We use an established in vivo APL model based on syngenic grafts of leukemic blasts from hMRP8-PML/RARα transgenic mice, as described by Brown et al. (Brown et al., 1997). This model mimics human APL, both in its biological characteristics and its response to conventional therapeutic drugs such as all-trans retinoic acid (ATRA) and 100% of the mice die of the disease (Brown et al., 1997; Kogan et al., 2000; Lallemand-Breitenbach et al., 1999). […] leukemic cells isolated from bone marrow, spleen, or lymph nodes of leukemic hMRP8-PML/RARα transgenic mice (Brown et al., 1997) were injected into the tail vein of 6-7 week old syngeneic FVB/N mice. Establishment of leukemia was assessed by the appearance of high leukocyte and low platelet counts at around day 8 (Brown et al., 1997). Ten days after transplantation, mice implanted with leukemic cells were randomly assigned to either type of treatment (n=6). Antp-AAC-11-LZ (363-399) peptide (1.8 mg/kg) or vehicle (normal saline solution) was injected intraperitonaly each day for 7 consecutive days. Retinoic acid was administrated by subcutaneous implantation of a 21-d release pellet containing 5 mg ATRA (Innovative Research of America). Mice were then monitored for survival.

Series [2] deals with human triple-negative breast cancer xenograft PDX01. In words: Triple-negative breast cancer patient-derived xenograft PDX01 in nude mice. Conditions: 2.4 mg/kg i.p., 7 daily injections, p=0.01. Type of series: in vivo. The protocol:
(§1) Breast cancer fragments were obtained from patients at the time of surgery, with informed written patient consent. After imaging-guided human tumor biopsies had been performed, fragments of 30 to 60 mm^3 were subcutaneously grafted in 6-week-old NMRI-nude mice (Centre-Elevage-Janvier, France), under xylasin (10 mg/kg)/ketamin (100 mg/kg) anesthesia. Mice were maintained in specific pathogen-free animal housing (Institut Universitaire d'Hematologie) and received estrogen (17 mg/mL) diluted in drinking water. Xenografts were characterized and subsequently subcutaneously transplanted from mouse to mouse. […] Two human triple-negative breast cancer (HBC) xenografts models were used in our experiments (PDX01 and PDX02). […] Following transplantation (n=6 per model) tumor growth was assessed by measuring tumor size in two dimension using a Vernier caliper. Tumor volume was calculated using the formula [3.14×long axis×short axis×short axis]/6 (Kjonniksen et al., 1989). […] Mice were weighted and the tumor size was measured by a caliper and recorded daily. Fourteen days after beginning of the treatment mice were sacrificed. The tumors, kidney, lungs, heart, liver, pancreas and spleen were taken and fixed. Paraffin-embedded sections were prepared and stained with hematoxylin and eosin for histological analysis.

The subject of series [3] is human triple-negative breast cancer xenograft PDX02. The experiment in a line: Triple-negative breast cancer patient-derived xenograft PDX02 in nude mice. Type of series: in vivo. Conditions: 2.4 mg/kg i.p., 7 daily injections, p=0.01. The procedure: as §1
In general terms: In xenograft studies the graft and the host belong to different species.

In another series the test system is HaCat cells. In words: Cell viability (MTT) of nonmalignant HaCat cells in the absence of serum. Type of series: cell-based. Conditions: 10 μM, 24 hours, FIG. 2B / 5B. The protocol: FIG. 2: TAT-AAC-11-LZ (363-399), RI-TAT-AAC-11-LZ (363-399) and Cter-Antp-AAC-11-LZ (363-399) peptides preferentially kill tumor cells. (A) A549 cells were plated at a densities of 4.5×10^3 in 96 well plates (100 μL total volume per well) and allowed to attach overnight in a 37° C. incubator (5% CO2). Media was removed from cells and replaced with media containing the indicated peptides at various concentrations (100 μL total volume per well) peptide in the absence of serum and the plates were incubated for 24 hours. The MTT assay was then completed and data analysis was performed as described herein. (B) A549 or HaCat cells were plated at a densities of 4.5×10^3 in 96 well plates (100 μL total volume per well) and allowed to attach overnight in a 37° C. incubator (5% CO2). Media was removed from cells and replaced with media containing the indicated peptides at 10 μM (100 μL total volume per well) peptide in the absence of serum and the plates were incubated for 24 hours. […]
Viability of cells cultured in the 96-well culture plates was assessed by measuring mitochondrial dehydrogenase activity, using the colorimetric CellTiter 96® AQueous One Solution Cell Proliferation Assay (Promega), according to the manufacturer′ instructions. […] The color can then be quantified using a simple colorimetric assay. The results are read on a multiwall scanning spectrophotometer (ELISA reader).

The next series concerns D3H2LN cells. The experiment in a line: Proliferation of D3H2LN cells (not showed). In kind it is cell-based.

“Also recorded” adds a separate entry of the source. Non-standard residues stand in square brackets, D forms with d.

For “Ac-RQIKIWFKKQNRRMKWKKKDFKIRLQYFARGLQVYIRQL-NH2 [Antp-AAC-11-LZ (371-391)]”, the “cytotoxicity (decrease of A549 viability) relative to comparison peptide, dose-response” value with A549 cells is reported as “reduced cytotoxicity compared with the Antp-AAC-11-LZ (371-399) peptide; also recorded: significantly higher cell death compared with the Antp-AAC-11-LZ (363-399) parent peptide”.

Consider “Ac-RQIKIWFKKQNRRMKWKKKDFKIRLQYFARGLQVYIRQLRLALQGKT-NH2 [Antp-AAC-11-LZ (371-399)]”, for which, in the series on A549 cells, the cellular viability is reported as 33.2 % of control and the “cytotoxicity (decrease of A549 viability) relative to comparison peptide, dose-response” value is reported as “markedly increased cytotoxicity potency compared to the parent peptide”.

For `CC1=C(/C=C/C(C)=C/C=C/C(C)=C/C(=O)O)C(C)(C)CCC1` [ATRA, all-trans retinoic acid, reference compound], the “mice surviving up to 67 d” value in series [1] (n=6 per treatment) is given as “one mouse”. In series [1] (peptide 1.8 mg/kg i.p. daily for 7 days, ATRA 5 mg 21-d release pellet s.c., from day 10 after graft, n=6), this compound registered a mean survival time of 56 days.

In the case of “Ac-RQIKIWFKKQNRRMKWKKFARGLQVYIRQLRLALQGKT-NH2 [Antp-AAC-11-LZ (380-399)]”, the “cytotoxicity (decrease of A549 viability) relative to comparison peptide, dose-response” value in the series with A549 cells is given as “substantial but weaker cell death than the Antp-AAC-11-LZ (363-399) peptide”.

As to “Antp-AAC-11-LZ (363-399) L/G: RQIKIWFKKQNRRMKWKKAKLNAEKLKDFKIRGQYFARGGQVYIRQGRLALQGKT (SEQ ID NO: 5), leucines 377, 384 and 391 mutated to glycines (Ac-RQIKIWFKKQNRRMKWKKAKLNAEKLKDFKIRGQYFARGGQVYIRQGRLALQGKT-NH2)”, the “induction of cell death of A549 cells” value with A549 cells is “neither the Penetratin peptide alone, the AAC-11-LZ (363-399) peptide without the Penetratin linkage nor the mutant peptide Antp-AAC-11-LZ (363-399) L/G did induce cell death”.

Consider “Ac-RQIKIWFKKQNRRMKWKKLQYFARGLLRLALQGKT-NH2 [Antp-AAC-11-LZ (377-399 4385-390)]”, for which, in the series with A549 cells, the cellular viability is reported as 3 % of control and the “cytotoxicity (decrease of A549 viability) relative to comparison peptide, dose-response” value is reported as “highest activity”.

As for “AAC-11-LZ (363-399): AKLNAEKLKDFKIRLQYFARGLQVYIRQLRLALQGKT (SEQ ID NO: 3) (Synthetic AAC-11-LZ (363-399))”, the “induction of cell death of A549 cells” value in the series with A549 cells is given as “neither the Penetratin peptide alone, the AAC-11-LZ (363-399) peptide without the Penetratin linkage nor the mutant peptide Antp-AAC-11-LZ (363-399) L/G did induce cell death”. Moreover, the “final mean tumor volume relative to control-treated mice” value is “less than 35%” in series [2] and “less than 50%” in series [3].

“Ac-YGRKKRRQRRRGGGAKLNAEKLKDFKIRLQYFARGLQVYIRQLRLALQGKT-NH2 [TAT-AAC-11-LZ (363-399)]”: the “cytotoxicity (decrease of A549 viability) relative to comparison peptide, dose-response” value in the series with A549 cells is reported as “at least as effective as compared to the Antp-AAC-11-LZ (363-399) peptide”. The “cytotoxicity in nonmalignant cells” value in the series on HaCat cells is “largely more resistant”. Moreover, in the series on D3H2LN cells, the “proliferation at the concentrations used for migration” value is reported as “neither the Antp-AAC-11-LZ (363-399) or TAT-AAC-11-LZ (363-399) peptides impaired proliferation”.

With “Ac-RQIKIWFKKQNRRMKWKKKDFKIRLQYFARGLQVYIRQLRLALQG-NH2 [Antp-AAC-11-LZ (371-397)]”, the “cytotoxicity (decrease of A549 viability) relative to comparison peptide, dose-response” value in the series with A549 cells is listed as “reduced cytotoxicity compared with the Antp-AAC-11-LZ (371-399) peptide; also recorded: significantly higher cell death compared with the Antp-AAC-11-LZ (363-399) parent peptide”.

“Ac-[dR][dR][dR][dQ][dR][dR][dK][dK][dR]G[dY]G[dT][dK]G[dQ][dL][dA][dL][dR][dL][dQ][dR][dI][dY][dV][dQ][dL]G[dR][dA][dF][dY][dQ][dL][dR][dI][dK][dF][dD][dK][dL][dK][dE][dA][dN][dL][dK][dA]-NH2 [RI-TAT-AAC-11-LZ (363-399)]”: the “cytotoxicity (decrease of A549 viability) relative to comparison peptide, dose-response” value with A549 cells was “more effective than the TAT-AAC-11-LZ (363-399) peptide”. Besides, the “cytotoxicity in nonmalignant cells” value in the series with HaCat cells was “very little cytotoxicity”.
